According to US11512085B2, “Heteroaryl compound having drug activity” (SHANGHAI DUDE MEDICAL TECHNOLOGY CO., LTD, priority 2017, dated 2022):
Where two headings read alike, the source gives them in different places.

What was measured:
[1] = test system: SU-DHL-6; assay: In vitro tumor cell proliferation (CellTiter-Glo), SU-DHL-6; assay type: cell-based; details: Homo sapiens, SU-DHL-6, 72 h; read-out: Growth IC50
Protocol: (§1) Biological Embodiment 8: Study on Effects of Active Compounds for Inhibiting In Vitro Tumor Cell Proliferation
(§2) Promega CellTiter-Glo cell activity detection kit by luminescence (Promega-G7573).
(§3) Tumor cell lines were cultured in a 5% of CO2 incubator at 37° C. according to respective culture conditions; and periodic passage was performed, and cells positioned in a logarithmic phase were taken for planking.
(§4) 3) 90 μL of cell suspension was added into each well of the culture plate, and a culture solution containing no cell was added into blank control;
(§5) 4) the culture plate was cultured overnight in the 5% of CO2 incubator having relative humidity of 100% at 37° C.
(§6) Preparation of a 400× compound storage plate: the compound was diluted from the maximum concentration gradient to the lowest concentration with DMSO. […]
(§7) The following steps were performed according to the specification of the Promega CellTiter-Glo cell activity detection kit by luminescence (Promega-G7573). […]
(§8) 9) the luminescence signal was detected on the 2104 EnVision plate reader.

[2] = test system: p-PLCγ/t-PLCγ; assay: Western blotting of p-PLCγ/t-PLCγ in anti-IgG stimulated DOHH2 cells; assay type: cell-based; details: DOHH2 cells, 5, 100, 2000 nM, 1 h, anti-IgG stimulation
Protocol: Biological Embodiment 4: Analysis of Influences of Test Compounds on p-Btk/t-Btk, p-PLCγ/t-PLCγ and p-Erk/t-Erk Expression Levels of DOHH2 Cells by Virtue of Western Blotting
1) DOHH2 cells on a logarithmic phase were collected;
2) a cell concentration was adjusted to a needed concentration;
3) 2 ml of cell suspension was added into a 6-well plate for performing culture, three different concentrations, that is, 5 nM, 100 nM and 2000 nM, of test samples were respectively set, and each concentration was repeated once;
4) test samples were added into plate wells, and DMSO served as control, wherein a final concentration of the DMSO was 0.1%;
5) culture was performed for 1 h; and […]
6. protein extraction and quantification […]
5) a protein concentration was determined by using Pierce™ BCA Protein Assay Kit; and
6) according to BCA protein quantification results, all samples were diluted to the same final concentration by adding 4×LDS sample buffer and 10× sample reducing agent into the RIPA buffer solution, and the solution was heated at 100° C. for 10 min. […]
10) chemiluminiscence was detected by Tanon 5200 multi.
7. Quantification of strip intensity
Intensity of each strip was quantified by using Image quant densitometry software. […]

[3] = test system: DB; assay: In vitro tumor cell proliferation (CellTiter-Glo), DB; assay type: cell-based; details: Homo sapiens, 72 h, read-out: Growth IC50
Protocol: as §1, §2, §3, §4, §5, §6, §7, §8

[4] = test system: SU-DHL-10; assay: In vitro tumor cell proliferation (CellTiter-Glo), SU-DHL-10; assay type: cell-based; details: Homo sapiens, SU-DHL10; SU-DHL-10, 72 h; read-out: Growth IC50
Protocol: as §1, §2, §3, §4, §5, §6, §7, §8

[5] = test system: OCI-LY3; assay: In vitro tumor cell proliferation (CellTiter-Glo), OCI-LY3; assay type: cell-based; details: Homo sapiens, OCI-Ly3, 72 h; read-out: Growth IC50
Protocol: as §1, §2, §3, §4, §5, §6, §7, §8

[6] = Pharmacokinetic study, single intravenous and oral dose, beagle dogs; assay type: in vivo; details: male, blood; for AUC(0-t) / Cmax / Tmax / half-life: Dog; for half-life: read-out: T½ (converted)
Protocol: Biological Embodiment 7: Pharmacokinetic Study of Performing Respective Single Intravenous and Oral Dose Delivery with Test Samples on SD Rats and Beagle Dogs
6 male beagle dogs were selected, grouped and administered according to an experimental design table; 3 animals in the first group were intravenously administered once on the day of administration, wherein the administration dosage was 2 mg/kg, and the administration volume was 2.5 mL/kg; 3 animals in the second group were orally intragastrically administered once on the day of administration, wherein the administration dosage was 30 mg/kg, and the administration volume was 5 mL/kg.
All the animals were subjected to cage edge observation twice every day so as to determine whether the animals got ill or had injuries or death and other situations and whether supply of foods and water was sufficient. In the test process, all administered animals were subjected to detailed clinical observation before administration and at blood collection points.
Before administration (0 h) and within 0.083 h, 0.25 h, 0.5 h, 1 h, 2 h, 4 h, 6 h, 8 h and 24 h after administration, blood samples were collected from femoral veins at 10 time points so as to be used for blood concentration test. Experimental design table

[7] = test system: OCI-LY10; assay: In vitro tumor cell proliferation (CellTiter-Glo), OCI-LY10; assay type: cell-based; details: Homo sapiens, OCI-Ly10, 72 h; read-out: Growth IC50
Protocol: as §1, §2, §3, §4, §5, §6, §7, §8

C=CC(=O)NN1CCCC(n2nc(-c3ccc(Oc4ccccc4)cc3)c3c(N)ncnc32)C1 (stereo not drawn) [Embodiment 6, N-(3-(4-amino-3-(4-phenoxyphenyl)-1H-pyrazolo[3,4-D]pyrimidine-1-yl)-1-piperidyl)-acrylamide]
IC50 [1]: > 10 µM
relative level of p-PLCγ/t-PLCγ [2]: obviously decreased
IC50 [3]: > 10 µM
IC50 [4]: > 10 µM
IC50 [5]: > 10 µM
AUC(0-t) ([6]; IV, 2 mg/kg): 888 ng·h/mL
Cmax ([6]; IV, 2 mg/kg): 1230 ng/mL
Tmax ([6]; IV, 2 mg/kg): 4.98 min
half-life ([6]; IV, 2 mg/kg): 48 min
AUC(0-t) ([6]; PO, 30 mg/kg): 7420 ng·h/mL
Cmax ([6]; PO, 30 mg/kg): 3830 ng/mL
Tmax ([6]; PO, 30 mg/kg): 49.8 min
half-life ([6]; PO, 30 mg/kg): 45 min
bioavailability ([6]; dog, oral, 30 mg/kg): 54.6%
IC50 [7]: 0.006 µM
